Data: US20230348450A1, “CARBOXYLIC ACID-CONTAINING COMPOUNDS AS MODULATORS OF BIS-PHOSPHOGLYCERATE MUTASE FOR THE TREATMENT OF SICKLE CELL DISEASE” (Genzyme Corporation, priority 2020, published 2023)
pEC50, pIC50: −log10 of the molar value.

Columns and labels:
[1] = target: human Bisphosphoglycerate mutase (hBPGM) (Homo sapiens (Human), UniProt P07738); experiment: BPGM Phosphatase Assay; type: biochemical; settings: Table 6 additional results; read-out: huBPGM: phosphatase Enzyme EC50
Method: Solutions of the test compounds were then added to the plate and the DMSO content was normalized across the plate. The plate was incubated at RT for 15 min. Next, the substrate 2,3-BPG (5 μL) was added to all the wells, and the plate was sealed and incubated for 24 hr at RT. After incubation, BIOMOL green dye (40 μL) was added to all the wells, the plate was shaken to mix, and the plate was incubated at RT for 20-30 min.

hBPGM = hBPGM (Homo sapiens (Human), UniProt P07738); experiment: BPGM Synthase Assay; type: biochemical; settings: Table 6 additional results; read-out: huBPGM: synthase Enzyme IC50
Chain of hBPGM (P07738 whole entry, looked up): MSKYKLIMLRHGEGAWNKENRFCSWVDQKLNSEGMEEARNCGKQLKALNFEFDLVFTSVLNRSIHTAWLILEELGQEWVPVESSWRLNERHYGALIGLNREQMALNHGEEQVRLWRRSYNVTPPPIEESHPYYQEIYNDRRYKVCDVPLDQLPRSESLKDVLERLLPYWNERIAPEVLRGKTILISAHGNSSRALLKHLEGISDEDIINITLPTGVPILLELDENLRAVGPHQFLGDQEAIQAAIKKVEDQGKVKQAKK
Method: Example B1. BPGM Synthase Assay
The following materials were used in this assay: deionized water; Bisphosphoglycerate mutase (BPGM; Standard Buffer: 50 mM Tris, 0.01% Tween 20, pH 7.4); BPGM Reaction Buffer (50 mM Tris, 0.01% Tween 20, 3.23 mM KH2PO4, pH 7.4); dithiothreitol (DTT; Stock solution: 100 mM in Standard Buffer); 384-Well Black Assay Plate (Corning, P/N 3575); DMSO; BPGM Stock Solution (500 nM in BPGM Standard Buffer); Glyceraldehyde 3-phosphate dehydrogenase (GAPDH; Stock Solution: 40 U/mL in 20 mM Tris-HCL Buffer with 20% Glycerol, 1 mM EDTA, 1 mM DTT); Glyceraldehyde 3-phosphate (GAP; Stock Solution: 20 mM in BPGM Standard Buffer); 3-PG Stock Solution (500 μM in BPGM Standard Buffer); Nicotinamide adenine dinucleotide (NAD; Stock Solution: 50 mM in BPGM Standard Buffer); Koningic Acid (1 mM Stock in DMSO); Resazurin Stock Solution (10 mM in DMSO); Diaphorase Stock Solution (40 U/mL in BPGM Standard Buffer); DTT Reaction Buffer (1 mM DTT in BPGM Reaction Buffer); Enzyme Solution (5 nM BPGM, 0.4 U/mL GAPDH in DTT Reaction Buffer); GAPDH Solution (0.4 U/mL GAPDH in DTT Reaction Buffer); Substrate Solution (2 mM NAD, 20 μM 3PG, 800 μM GAP in DTT Reaction Buffer); and Resazurin Solution (5 U/mL Diaphorase, 500 μM Resazurin in BPGM Standard Buffer).
To the assay plate was added Enzyme Solution (20 uL) to columns 2-22 and 24 of the assay plate. To columns 1 and 23 was added GAPDH Solution (20 uL). A separate compound plate was prepared at the desired concentrations and all wells were normalized with 5% DMSO. The compound plate was incubated for 30 minutes at RT. Next, the substrate solution (20 μL) was dispensed to all reaction wells and the plate was incubated for 60 minutes at RT. Koningic acid (1 μL) was added and the plate was incubated for 10 minutes at RT. During this time period, the NADH fluorescence was read at ex: 360/em: 460. Next, Resazurin Solution (10 μL) was added to all reaction wells and the plate was incubated for 30 minutes at RT. The resorufin fluorescence was then read at ex:544/em:590.

Chain of human Bisphosphoglycerate mutase (hBPGM) (P07738 whole entry): as the sequence (P07738 whole entry, looked up) above

| Compound | pEC50 [1] | pIC50 (hBPGM) |
| --- | --- | --- |
| Cc1nc(COc2ccccn2)sc1-c1cccc(-c2ccc(C(=O)O)c(O)c2)n1 [Example 128] | 7.10 | 6.72 |
| Cc1nc(CN)sc1-c1csc(-c2ccc(C(=O)O)c(O)c2)n1 [Example 230] | < 4.60 | 5.36 |
| COC(=O)NCc1nc(C)c(-c2csc(-c3cc(O)c(CC(=O)O)cc3F)n2)s1 [Example 116] | < 4.60 | 5.16 |
| COC(=O)NCc1nc(C)c(-c2csc(-c3cc(O)c(C(=O)O)cn3)n2)s1 [Example 207] | 6.47 | 6.55 |
| COC(=O)N[C@@H](C)c1nc(C)c(-c2csc(-c3cc(O)c(C(=O)O)cc3F)n2)s1 [Example 177] | 6.80 | 7.23 |
| Cc1nc(COc2ncccn2)sc1-c1csc(-c2cc(O)c(C(=O)O)cc2F)n1 [Example 137] | 7.70 | 7.55 |
| Cc1nc(CNC(=O)C2CCCC2)sc1-c1csc(-c2cc(O)c(C(=O)O)cc2F)n1 [Example 222] | 6.89 | 6.96 |
| Cc1nc(Cn2cccn2)sc1-c1csc(-c2cc(O)c(C(=O)O)cc2F)c1 [Example 229] | 7.52 | 6.72 |
| Cc1nc(COc2ncccn2)sc1-c1cccc(-c2csc(C(=O)O)c2)n1 [Example 79] | 6.96 | 6.26 |
| Cc1nc(COc2ncccn2)sc1-c1cccc(-c2ccc(C(=O)O)c(C#N)c2)n1 [Example 78] | 7.15 | 6.74 |
| Cc1nc(CNC(=O)C(C)CN(C)C)sc1-c1csc(-c2cc(O)c(C(=O)O)cc2F)n1 (stereo not shown) [Example 117] | 5.06 | 6.77 |
| Cc1nc(CN)sc1-c1csc(-c2cc(O)c(C(=O)O)cc2F)c1 [Example 251] | 6.40 | 6.57 |
| Cc1nc(CNC(=O)OC(C)C)sc1-c1csc(-c2cc(O)c(C(=O)O)cc2F)n1 [Example 234] | 7.10 | 7.08 |
| COC(=O)NCc1nc(C)c(-c2csc(-c3ccc(C(=O)O)c(O)c3)c2)s1 [Example 166] | 7.15 | 6.60 |
| Cc1nc(C(C)NC(=O)C(C)(C)C)sc1-c1csc(-c2cc(O)c(C(=O)O)cc2F)n1 (stereo not shown) [Example 141] | 7.15 | 6.89 |
| COC(=O)NCc1nc(C)c(-c2csc(-c3cc(O)c(C(=O)NCC(=O)NCC(=O)O)cc3F)n2)s1 [Example 119] | 5.74 | 6.47 |
| Cc1nc(Cc2cccnc2)sc1-c1csc(-c2ccc(C(=O)O)c(O)c2)n1 [Example 250] | 6.54 | 6.60 |
| Cc1nc(CNC(=O)c2ccn(C)n2)sc1-c1csc(-c2cc(O)c(C(=O)O)cc2F)n1 [Example 173] | 7.00 | 7.31 |
| Cc1nc(CNC(=O)c2ccccn2)sc1-c1csc(-c2cc(O)c(C(=O)O)cc2F)n1 [Example 200] | 6.57 | 7.14 |
| COCCNCc1nc(C)c(-c2csc(-c3cc(O)c(C(=O)O)cc3F)n2)s1 [Example 175] | 6.49 | 6.28 |
| Cc1nc(CO)sc1-c1cccc(-c2cc(C(=O)O)cs2)n1 [Example 75] | < 4.60 | 5.34 |
| Cc1nc(Cc2ccn(C)n2)sc1-c1cccc(-c2ccc(C(=O)O)c(O)c2)c1 [Example 253] | 6.82 | 6.72 |
| Cc1nc(CNC(=O)C(C)(C)C)sc1-c1cccc(-c2ccc(C(=O)O)cc2)c1 [Example 73] | < 4.60 | 5.66 |
| Cc1nc(COC(=O)N2CCN(C)CC2)sc1-c1csc(-c2cc(O)c(C(=O)O)cc2F)n1 [Example 118] | 6.89 | 6.74 |

| Compound | pEC50 [1] | pIC50 (hBPGM) |
| --- | --- | --- |
| Cc1nc(CNCC(C)(C)C)sc1-c1csc(-c2cc(O)c(C(=O)O)cc2F)n1 [Example 147] | 7.30 | 6.21 |
| Cc1nc(COc2cccc(C#N)n2)sc1-c1cccc(-c2ccc(C(=O)O)c(O)c2)c1 [Example 256] | 7.15 | 6.06 |
| Cc1cnc(OCc2nc(C)c(-c3csc(-c4cc(O)c(C(=O)O)cc4F)n3)s2)nc1 [Example 132] | 7.30 | 7.35 |
| COC(=O)NCc1nc(C)c(-c2csc(-c3cc(C)c(C(=O)O)c(O)c3)n2)s1 [Example 208] | 6.38 | 6.44 |
| Cc1nc(CNC(=O)C2CCN(C)CC2)sc1-c1csc(-c2cc(O)c(C(=O)O)cc2F)n1 [Example 126] | 6.62 | 6.34 |
| Cc1nc(COC2CCCOC2)sc1-c1cccc(-c2cc(C(=O)O)cs2)n1 (stereo not shown) [Example 49] | 6.28 | 6.46 |
| Cc1nc(COc2ccccn2)sc1-c1cccc(-c2cc(O)c(C(=O)O)cc2F)n1 [Example 164] | 7.15 | 6.77 |
| Cc1nc(Cc2ccccc2)sc1-c1cccc(-c2cc(O)c(C(=O)O)cc2F)n1 [Example 162] | 7.22 | 6.85 |
| Cc1nc(Cc2cccnc2)sc1-c1cccc(-c2ccc(C(=O)O)c(O)c2)n1 [Example 237] | 6.77 | 6.85 |
| Cc1cccc(Cc2nc(C)c(-c3cccc(-c4ccc(C(=O)O)c(O)c4)c3)s2)n1 [Example 279] | 5.16 | 5.59 |
| Cc1nc(CNC(=O)C(C)(C)C)sc1-c1csc(-c2cc(O)c(C(=O)O)cc2F)c1 [Example 139] | 7.05 | 7.08 |
| Cc1nc(CNC(=O)C(=O)N(C)C)sc1-c1csc(-c2cc(O)c(C(=O)O)cc2F)n1 [Example 203] | 6.01 | 6.68 |
| Cc1nc(CN)sc1-c1csc(-c2cc(O)c(C(=O)O)cc2F)n1 [Example 243] | 6.00 | 6.08 |
| COC(=O)NCc1nc(C)c(-c2csc(-c3cc(O)c(C(=O)O)c(F)c3F)n2)s1 [Example 135] | 7.15 | 7.40 |
| Cc1nc(Cc2cccnc2)sc1-c1cccc(-c2cc(O)c(C(=O)O)cc2F)c1 [Example 99] | 6.55 | 6.40 |
| Cc1nc(COc2cnccn2)sc1-c1csc(-c2cc(O)c(C(=O)O)cc2F)n1 [Example 140] | 7.52 | 7.02 |
| Cc1nc(C)c(-c2ccc(C#N)c(-c3ccc(C(=O)O)c(O)c3)c2)s1 [Example 294] | – | 4.36 |
| Cc1nc(CNC(=O)C(C)(C)C)sc1-c1cccc(-c2ccc(C(=O)O)cc2)n1 [Example 62] | – | 5.74 |
| Cc1nc(C)c(-c2cc(-c3ccc(C(=O)O)c(O)c3)ccn2)s1 [Example 293] | – | 5.03 |
| Cc1nc(CO[C@@H]2CCCOC2)sc1-c1cccc(-c2ccc(C(=O)O)cc2)c1 [Example 47] | – | 6.01 |
| Cc1nc(C)c(-c2ccc(=O)n(-c3ccc(C(=O)O)c(O)c3)c2)s1 [Example 319] | – | < 3.60 |
| O=C(O)c1ccc(-c2nc(-c3ccnc(COc4ncccn4)c3)cs2)cc1 [Example 37] | – | 5.12 |
| Cc1nc(COCC(C)(C)O)sc1-c1cccc(-c2ccc(C(=O)O)c(O)c2)c1 [Example 335] | – | 6.51 |
| CNC(=O)CCc1nc(C)c(-c2cccc(-c3ccc(C(=O)O)c(O)c3)c2)s1 [Example 264] | – | 5.15 |
